Data set [1] relates to human eosinophils. It counts as cell-based. As for the experimental part: Human eosinophils were prepared by isolation from the blood of donor individuals with high levels of circulating blood eosinophils (5-17%) by combining density gradient centrifugation and negative selection with anti-CD16 magnetic beads. Briefly, the granulocyte fraction from the Percoll centrifugation was incubated with CD16 micro beads (miniMACS™, separation unit) for 30 minutes. Cells were then passed through a MACS™ column (Miltenyi Biotec, Inc., Auburn, Calif.) and eosinophils were collected in the flow through. Eosinophil purity was >98% as determined by analysis of Diff-Quik™ (Baxter) stained cytocentrifugation preparations by light microscopy. Intracellular free calcium was measured using the fluorescent probe Fluo-3. Cell suspensions (10^7 cells/ml) were loaded with Fluo-3/AM (1 μM, 30 minutes at 37° C), washed, resuspended at 2×10^6 cells/ml in Hanks' balanced salt solution (HBSS) and their fluorescence monitored in a spectrofluorometer (SLM 8000, SLM-Aminco, Champagne, Ill., USA) (excitation and emission wavelengths, 500 and 530 nm, respectively) The internal calcium concentrations were calculated as described in Tsien et al. (J. Cell. Biol. 94: 3325-3334, 1982). Each assay was individually calibrated.

Data set [2] relates to human eosinophils. It counts as cell-based. As for the experimental part:
Human eosinophils were prepared by isolation from the blood of donor individuals with high levels of circulating blood eosinophils (5-17%) by combining density gradient centrifugation and negative selection with anti-CD16 magnetic beads. Briefly, the granulocyte fraction from the Percoll centrifugation was incubated with CD16 micro beads (miniMACS™, separation unit) for 30 minutes. Cells were then passed through a MACS™ column (Miltenyi Biotec, Inc., Auburn, Calif.) and eosinophils were collected in the flow through. Eosinophil purity was >98% as determined by analysis of Diff-Quik™ (Baxter) stained cytocentrifugation preparations by light microscopy. Leukocyte chemotaxis was assessed on eosinophils, using a modification of a transendothelial assay. The endothelial cells used in this assay were the endothelial cell line, ECV 304, obtained from the European collection of Animal Cell Cultures (Porton Downs, Salisbury, U.K.). Endothelial cells were cultured on 6.5 mm diameter Transwell™ culture inserts (Costar Corp., Cambridge, Mass.) with 3.0 μm pore size. The assay media consisted of equal parts RPMI 1640 and M199 with 0.5% BSA. […] The cells that had migrated to the bottom chamber were counted using flow cytometry. […] Inhibitor potency was determined by comparison of cell numbers migrated to the bottom chamber, with or without inhibitor. […]
This is another data set of the same source.

The target of another data set is T1, CCR3 (Homo sapiens, UniProt P51677).
T1 construct: expressed in transfected cells; host or cells: 293 cells
T1 sequence (P51677 1-355): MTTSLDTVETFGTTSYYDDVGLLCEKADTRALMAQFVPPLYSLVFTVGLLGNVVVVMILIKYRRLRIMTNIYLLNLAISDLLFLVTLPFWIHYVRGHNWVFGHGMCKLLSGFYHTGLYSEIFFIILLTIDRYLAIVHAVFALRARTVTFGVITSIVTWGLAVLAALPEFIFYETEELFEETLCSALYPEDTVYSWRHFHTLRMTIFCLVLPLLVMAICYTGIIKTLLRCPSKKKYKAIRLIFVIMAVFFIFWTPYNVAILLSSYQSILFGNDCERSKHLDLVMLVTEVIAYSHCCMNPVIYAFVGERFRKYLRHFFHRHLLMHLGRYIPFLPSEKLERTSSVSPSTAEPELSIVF
Put plainly: Binding specificity, CCR3 transfected in 293 cells. The conditions noted are these: CCR3 transfected 293 cells; peptide at 10 μM (FIG. 4 legend). As to the method:
(§1) Chemokine binding to the target cells, human eosinophils and 293/CCR3 cells, was carried out using a modification of a method previously reported. Cells were washed once in PBS and resuspended in binding buffer (50 mM HEPES, 1 mM CaCl2, 5 mM MgCl2, and 0.5% BSA) at a concentration of 1×10^7/mL. Aliquots of 50 μL (5×10^5 cells) were dispensed into microfuge tubes, followed by the addition of cold and radiolabeled chemokines. The final reaction volume was 200 μL. Nonspecific binding was determined by incubating cells with radiolabeled chemokines in the presence of increasing amounts of (250-500 nM) of cold chemokine. After 60-min incubation, at room temperature, the cells were washed three times with 1 ml of binding buffer plus 0.5 M NaCl. Cell pellets were then counted. All experiments were carried out using duplicates and repeated at least three times. Curve fit was calculated by Kaleidagraph™ software (Synergy Software, Reading, Pa.). Inhibition of binding was assessed by the addition of test inhibitor compound at the indicated concentrations, and incubation for 30 min prior to addition of the chemokine as above.
(§2) The compound was used in the binding assay to compete with CXCR4, CXCR2, CCR2, and CCR3 transfected in 293 cells. […] The data are representative of three independent experiments.

The target in a further data set is T2, CCR2 (Homo sapiens, UniProt P41597).
T2 construct: expressed in transfected cells; host or cells: 293 cells
Put plainly: Binding specificity, CCR2 transfected in 293 cells. To be noted: CCR2 transfected 293 cells; peptide at 10 μM (FIG. 4 legend). As for the experimental part:
as §1, §2

The target of the next data set is T3, CXCR2 (Homo sapiens, UniProt P25025).
T3 construct: expressed in transfected cells; host or cells: 293 cells
T3 sequence (P25025 1-360): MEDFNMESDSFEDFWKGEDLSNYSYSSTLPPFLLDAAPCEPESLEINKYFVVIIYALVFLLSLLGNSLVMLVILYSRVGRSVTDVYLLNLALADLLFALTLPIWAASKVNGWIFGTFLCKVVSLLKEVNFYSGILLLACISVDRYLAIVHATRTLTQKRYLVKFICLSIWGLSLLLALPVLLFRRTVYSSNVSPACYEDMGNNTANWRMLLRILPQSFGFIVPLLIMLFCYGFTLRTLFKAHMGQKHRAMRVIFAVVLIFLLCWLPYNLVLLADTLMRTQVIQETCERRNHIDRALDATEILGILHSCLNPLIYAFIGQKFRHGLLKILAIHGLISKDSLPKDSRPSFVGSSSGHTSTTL
Nature of the data set: Binding specificity, CXCR2 transfected in 293 cells. To be noted: CXCR2 transfected 293 cells; peptide at 10 μM (FIG. 4 legend). As to the method: as §1, §2

Another data set concerns the target T4, CXCR4 (Homo sapiens, UniProt P61073).
T4 construct: expressed in transfected cells; host or cells: 293 cells
Put plainly: Binding specificity, CXCR4 transfected in 293 cells. The conditions noted are these: CXCR4 transfected 293 cells; peptide at 10 μM (FIG. 4 legend). As for the experimental part:
as §1, §2

Data set [3] has as its system human eosinophils. Put plainly: Cytotoxicity, lysis of 51Cr-labeled cells. The conditions noted are these: cells cultured in presence of the peptide. It counts as cell-based. As to the method: To exclude the possible contribution of cytotoxicity of the hexapeptides to the inhibition of eosinophil function, ^51Cr-labeled cells were cultured in presence of the peptide for the indicated time.

Data set [4] has as its system human eosinophils. It counts as cell-based. This is another data set of the same source.
In data set [5] the test system is human eosinophils. Nature of the data set: Cell viability by MTT incorporation. To be noted: after 24 hours. It counts as cell-based. As for the experimental part:
In FIG. 5, cell viability in presence of SC004411 was assayed with MTT incorporation. […] The data are representative of three independent experiments.

Data set [6] addresses T5, CCR3 on human eosinophils (human, UniProt P51677 1-355).
T5 sequence (looked up): T1 sequence (P51677 1-355)
Put plainly: cell-based or functional assay.

Data set [7] has as its target T5, CCR3 on human eosinophils. Nature of the data set: competition with 125I-eotaxin (0.3 nM) for CCR3 on human eosinophils, filtration radioligand assay.

These results are taken from patent US20030083239A1, “Chemokine receptor CCR3 antagonists” (priority 1999, published 2003).

Where two headings read alike, the source gives them in different places. Ends that are not written are not given here. Peptide text beside a SMILES is read from it.

T4 sequence (P61073 whole entry, species assumed): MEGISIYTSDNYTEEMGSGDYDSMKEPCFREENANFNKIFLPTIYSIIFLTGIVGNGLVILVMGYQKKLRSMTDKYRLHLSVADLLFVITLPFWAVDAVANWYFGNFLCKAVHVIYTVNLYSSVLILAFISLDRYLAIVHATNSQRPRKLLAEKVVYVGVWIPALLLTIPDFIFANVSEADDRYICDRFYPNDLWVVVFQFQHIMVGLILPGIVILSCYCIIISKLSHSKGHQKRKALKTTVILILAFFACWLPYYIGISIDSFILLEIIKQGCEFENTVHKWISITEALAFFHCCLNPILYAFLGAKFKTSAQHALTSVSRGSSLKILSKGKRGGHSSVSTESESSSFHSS
T2 sequence (P41597 whole entry, species assumed): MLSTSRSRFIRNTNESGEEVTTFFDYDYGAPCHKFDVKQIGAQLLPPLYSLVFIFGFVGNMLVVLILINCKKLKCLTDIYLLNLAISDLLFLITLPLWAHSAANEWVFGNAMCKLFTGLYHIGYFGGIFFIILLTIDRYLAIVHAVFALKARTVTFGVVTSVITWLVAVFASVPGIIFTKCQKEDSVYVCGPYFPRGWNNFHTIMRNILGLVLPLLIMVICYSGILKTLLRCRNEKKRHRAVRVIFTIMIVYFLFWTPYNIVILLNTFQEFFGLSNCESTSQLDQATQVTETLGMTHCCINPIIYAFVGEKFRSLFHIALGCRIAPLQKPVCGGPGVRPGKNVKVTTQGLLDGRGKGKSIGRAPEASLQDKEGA

`CC(=O)N[C@@H](CS)C(=O)N[C@@H](CCCNC(=N)N)C(=O)N[C@@H](CS)C(=O)N[C@@H](C)C(=O)N[C@@H](C)C(=O)N[C@@H](CCCNC(=N)N)C(N)=O` [SC004411, CRCAAR] (Ac-CRCAAR-NH2; N-terminus and C-terminus assumed): the IC50 in the data set on human eosinophils [1] was about 40 µM; in the data set with human eosinophils [2], about 20 µM. In addition, on CCR3, the “inhibition of eotaxin-binding to CCR3” value is reported as “specifically inhibited”. For the same molecule, at CCR2, the “inhibition of binding to CCR2” value is given as “not”. In addition, the “inhibition of binding to CXCR2” value at CXCR2 is recorded as “not”. In addition, the “inhibition of binding to CXCR4” value on CXCR4 is “not”. Besides, in the data set with human eosinophils [3], the “cell lysis of 51Cr-labeled human eosinophils” value was “did not cause cell lysis”. In addition, in the data set on human eosinophils [4], the “toxicity by Trypan Blue exclusion” value is reported as “not toxic”. In addition, in the data set with human eosinophils [5], the “concentration at which the compound starts to be toxic (MTT viability)” value is “above 100 μM”.

B1: hexamer peptide CRCAAR (SEQ ID NO: 1), peptide SC004411 (peptide)
peptide: CRCAAR
modifications: not fully specified; cysteine pairing not given here
notes: Synthetic hexapeptide; also called compound SC004411
As to B1, in data set [6], the “inhibition of eotaxin-induced calcium mobilization of human eosinophils (functional IC50)” value is about 40 µM and the “inhibition of eotaxin-induced chemotaxis of human eosinophils (functional IC50)” value was about 20 µM. Further, the IC50 in data set [7] was about 40 µM.
